Test results published in patent US7396837B2, “Antitumoral analogs of lamellarins” (Pharma Mar, S.A.U., priority 2002, dated 2008).

Experiments:
Type in all cases: cell-based
[1] = tested on: A-549; assay: SRB colorimetric cell growth inhibition assay, A-549; details: Homo sapiens, A549, A-549; for GI50: GI=growth inhibition, read-out: GI50 A-549; for CC50: cell killing (cytotoxic effect), read-out: LC50 A-549; for IC (TGI): total growth inhibition (cytostatic effect), read-out: TGI A-549
Description: (§1) The finality of these assays is to interrupt the growth of an “in vitro” tumor cell culture by means a continued exhibition of the cells to the sample to be testing.
(§2) A colorimetric type of assay, using sulforhodamine B (SRB) reaction has been adapted for a quantitative measurement of cell growth and viability (following the technique described by P. A. Skehan, et al., J. Natl. Cancer Inst. 1990, 82, 1107-1112).
(§3) This form of assay employs 96 well cell culture microplates of 9 mm diameter (T. Mosmann et al., J. of Immunological Methods 1983, 65, 55-63; G. T. Faircloth et al., J. of Tissue and Culture Methods 1988, 11, 201-205).
(§4) Most of the cell lines are obtained from American Type Culture Collection (ATCC) derived from different human cancer types.
(§5) The values for mean +/− SD of data from triplicate wells are calculated. Some parameters for cellular responses can be calculated: GI=growth inhibition, TGI=total growth inhibition (cytostatic effect) and LC=cell killing (cytotoxic effect).

[2] = tested on: SK-MEL-28; assay: SRB colorimetric cell growth inhibition assay, SK-MEL-28; details: Homo sapiens, SK-MEL-28, MEL-28; for GI50: GI=growth inhibition, read-out: GI50 MEL-28; for CC50: cell killing (cytotoxic effect), read-out: LC50 MEL-28; for IC (TGI): total growth inhibition (cytostatic effect), read-out: TGI MEL-28
Description: as §1, §2, §3, §4, §5

[3] = tested on: HT-29; assay: SRB colorimetric cell growth inhibition assay, HT-29; details: Homo sapiens, HT-29, HT-29; for GI50: GI=growth inhibition, read-out: GI50 HT-29; for CC50: cell killing (cytotoxic effect), read-out: LC50 HT-29; for IC (TGI): total growth inhibition (cytostatic effect), read-out: TGI HT-29
Description: as §1, §2, §3, §4, §5

[4] = tested on: LoVo; assay: SRB colorimetric cell growth inhibition assay, LoVo; details: Homo sapiens, LoVo; for GI50: GI=growth inhibition, read-out: GI50 LOVO; for CC50: cell killing (cytotoxic effect), read-out: LC50 LOVO; for IC (TGI): total growth inhibition (cytostatic effect), read-out: TGI LOVO
Description: as §1, §2, §3, §4, §5

[5] = tested on: LoVo-Dox; assay: SRB colorimetric cell growth inhibition assay, LoVo-Dox (MDR); details: Homo sapiens, LOVO-DOX; for GI50: GI=growth inhibition, read-out: GI50 LOVO-DOX; for CC50: cell killing (cytotoxic effect), read-out: LC50 LOVO-DOX; for IC (TGI): total growth inhibition (cytostatic effect), read-out: TGI LOVO-DOX
Description: as §1, §2, §3, §4, §5

[6] = tested on: DU-145; assay: SRB colorimetric cell growth inhibition assay, DU-145; details: Homo sapiens, DU-145, DU-145; for GI50: GI=growth inhibition, read-out: GI50 DU-145; for CC50: cell killing (cytotoxic effect), read-out: LC50 DU-145; for IC (TGI): total growth inhibition (cytostatic effect), read-out: TGI DU-145
Description: as §1, §2, §3, §4, §5

[7] = tested on: SK-BR-3; assay: SRB colorimetric cell growth inhibition assay, SK-BR-3; details: Homo sapiens, SK-BR-3, SK-BR-3; for GI50: GI=growth inhibition, read-out: GI50 SK-BR-3; for CC50: cell killing (cytotoxic effect), read-out: LC50 SK-BR-3; for IC (TGI): total growth inhibition (cytostatic effect), read-out: TGI SK-BR-3
Description: as §1, §2, §3, §4, §5

[8] = tested on: IGROV; assay: SRB colorimetric cell growth inhibition assay, IGROV; details: Homo sapiens, IGROV; for GI50: GI=growth inhibition, read-out: GI50 IGROV; for CC50: cell killing (cytotoxic effect), read-out: LC50 IGROV; for IC (TGI): total growth inhibition (cytostatic effect), read-out: TGI IGROV
Description: as §1, §2, §3, §4, §5

[9] = tested on: IGROV-ET; assay: SRB colorimetric cell growth inhibition assay, IGROV-ET (ET-743 resistant); details: Homo sapiens, IGROV-ET; for GI50: GI=growth inhibition, read-out: GI50 IGROV-ET; for CC50: cell killing (cytotoxic effect), read-out: LC50 IGROV-ET; for IC (TGI): total growth inhibition (cytostatic effect), read-out: TGI IGROV-ET
Description: as §1, §2, §3, §4, §5

[10] = tested on: HeLa; assay: SRB colorimetric cell growth inhibition assay, HeLa; details: Homo sapiens, HeLa; for GI50: GI=growth inhibition, read-out: GI50 HELA; for CC50: cell killing (cytotoxic effect), read-out: LC50 HELA; for IC (TGI): total growth inhibition (cytostatic effect), read-out: TGI HELA
Description: as §1, §2, §3, §4, §5

[11] = tested on: HeLa-APL; assay: SRB colorimetric cell growth inhibition assay, HeLa-APL (aplidine resistant); details: Homo sapiens, HELA-APL; for GI50: GI=growth inhibition, read-out: GI50 HELA-APL; for CC50: cell killing (cytotoxic effect), read-out: LC50 HELA-APL; for IC (TGI): total growth inhibition (cytostatic effect), read-out: TGI HELA-APL
Description: as §1, §2, §3, §4, §5

[12] = tested on: PANC-1; assay: SRB colorimetric cell growth inhibition assay, PANC-1; details: Homo sapiens, PANC-1, PANC-1; for GI50: GI=growth inhibition, read-out: GI50 PANC-1; for CC50: cell killing (cytotoxic effect), read-out: LC50 PANC-1; for IC (TGI): total growth inhibition (cytostatic effect), read-out: TGI PANC-1
Description: as §1, §2, §3, §4, §5

SMILES	GI50 [1]	CC50 [1]	IC (TGI) [1]	GI50 [2]	CC50 [2]	IC (TGI) [2]	GI50 [3]	CC50 [3]	IC (TGI) [3]	GI50 [4]	CC50 [4]	IC (TGI) [4]	GI50 [5]	CC50 [5]	IC (TGI) [5]	GI50 [6]	CC50 [6]	IC (TGI) [6]	GI50 [7]	CC50 [7]	further results
COc1cc(-c2c3c4cc(OC)c(OC(C)C)cc4oc(=O)c3n3ccc4c(OC(C)C)c(OC)c(OC)cc4c23)ccc1OC(C)C [Compound 27]	5.49 µM	15.2 µM	15.2 µM	4.47 µM	15.2 µM	9.35 µM	0.144 µM	15.2 µM	2.17 µM	0.27 µM	15.2 µM	2.17 µM	15.2 µM	15.2 µM	15.2 µM	0.976 µM	12.6 µM	3.95 µM	0.881 µM	14.1 µM	IC (TGI) [7]: 3.25 µM; GI50 [8]: 1.15 µM; CC50 [8]: 15.2 µM; IC (TGI) [8]: 5.06 µM; GI50 [9]: 10.4 µM; CC50 [9]: 15.2 µM; IC (TGI) [9]: 15.2 µM; GI50 [10]: 4.04 µM; CC50 [10]: 15.2 µM; IC (TGI) [10]: 9.47 µM; GI50 [11]: 13 µM; CC50 [11]: 15.2 µM; IC (TGI) [11]: 15.2 µM; GI50 [12]: 4.41 µM; CC50 [12]: 15.2 µM; IC (TGI) [12]: 13 µM
CCCCCCCC(=O)Oc1ccc(-c2c3n(c4c(=O)oc5cc(OC(=O)CCCCCCC)c(OC)cc5c24)CCc2cc(OC(=O)CCCCCCC)c(OC)cc2-3)cc1OC [Compound 28]	1.39 µM	11.4 µM	11.4 µM	2.24 µM	11.4 µM	7.28 µM	0.111 µM	11.4 µM	1.2 µM	0.634 µM	11.4 µM	5.16 µM	11.4 µM	11.4 µM	11.4 µM	0.315 µM	7.32 µM	1.47 µM	0.941 µM	11.4 µM	IC (TGI) [7]: 4.73 µM; GI50 [8]: 1.64 µM; CC50 [8]: 9.61 µM; IC (TGI) [8]: 3.97 µM; GI50 [9]: 11.4 µM; CC50 [9]: 11.4 µM; IC (TGI) [9]: 11.4 µM; GI50 [10]: 2.76 µM; CC50 [10]: 11.4 µM; IC (TGI) [10]: 9.24 µM; GI50 [11]: 9.53 µM; CC50 [11]: 11.4 µM; IC (TGI) [11]: 11.4 µM; GI50 [12]: 1.91 µM; CC50 [12]: 11.4 µM; IC (TGI) [12]: 11.4 µM
